Like-named read-outs stand apart in the source and are kept apart here.
Legend:
[1] = tested on: hyperpolarisation-activated inward cation current Ih in dorsal root ganglion (DRG) cells; assay: Inhibition of hyperpolarisation-activated cation current (Ih), whole cell voltage clamp on cultured DRG cells; format: cell-based; conditions: (-) log concentration at which Ih activation rate constant kact is reduced by 50%; mean; rat DRG cells
Method: A) determining the potency of compounds to inhibit the hyperpolarisation-activated inward cation current Ih in dorsal root ganglion (DRG) cells of the rat; the effect is measured as the decrease in Ih activation rate and is expressed as the half maximal effect concentration (IC50) or the negative logarithm of this IC50 (known as pIC50).
To obtain E15 DRGs, pregnant Wistar rats were sacrificed. Embryos were removed and spinal cords with DRG attached to both sides were dissected out and collected in Hanks balanced salt solution (HBSS; Gibco). DRG were separated from the spinal cord and pooled in HBSS without Ca^2+ and Mg^2+. Dissociation of intact DRG was started by incubation with a 0.25% trypsin solution for 30 min at 37° C. Trypsination was stopped by diluting the enzyme and centrifugation (1 min; 2500 rpm). After aspiration of the supernatant the tissue pellet was triturated with DMEMF10 (DMEM supplemented with 10% fetal bovine serum (Hyclone), 6 g/l glucose and 2 mM I-glutamine) and centrifuged for 10 min at 1700 rpm. Dissociated DRG cells were resuspended in culture medium (DMEMF10 with 50 ng/ml NGF 2.5S (Alomone labs)), counted and plated out in a density of 1-2.105 cells on collagen (50 μg/ml) and/or poly-l-lysine (10-20 μg/ml) coated glass coverslips in 24-well tissue culture plates. Plates were kept in a humidified incubator at 37° C. and 5% CO2 for 72 hrs. Glial cell proliferation was inhibited when necessary by adding cytosine arabinoside (Ara-c) at a concentration of 5.10^−7 M. After 3 days fresh culture medium was administered. Medium was subsequently changed every […].
DRG cells were sampled with the whole cell voltage clamp method. Glass electrodes were pulled from thick-walled borosilicate capillaries with filament (1 mm outer diameter). Pipette resistance was 2-5 MΩ. Series resistance (5-15 MΩ) was compensated for to ensure so that potential errors made in the determination of the actual membrane potential were less then 2 mV. Cell capacitance (10-75 pF) compensation was used to compensate for capacitive currents. The extracellular solution contained (in mM): NaCl 140; KCl 5; CaCl2 2; MgCl2 1; D(+) glucose 5.6;HEPES 5; Sucrose 30; pH=7.4. The pipette solution contained (in mM): K-gluconate 119; NaCl 5; KCl 13; CsCl 2; CaCl2 1; EGTA 10;HEPES 10; pH=7.2. Cells were preincubated for more then 1½ hours with different concentrations (1E-9 to 1E-4 M) of test compound dissolved in extracellular solution at room temperature (20° C.) in normal air. Larger cells that appeared round with a pronounced halo under phase-contrast microscopy were selected because almost all of them expressed Ih. Data were acquired with a Digidata 1200® analogue to digital interface using PCLAMP® software (both from Axon Instruments). For Ih activation the cell was held at −63 mV and stepped to −123mV (potentials after correction for liquid junction potential). Current traces were selected for soundness, averaged and fitted to a first order exponential using PCLAMP® software (fit between 60 and 950 ms to avoid biasing by transient currents). Activation time constants (τ) for Ih under different drug concentrations were derived from this fit. The activation rate constant for Ih is defined as kact=1/τ.
The pIC50 is the (-) log concentration of a compound at which the Ih activation rate constant kact is reduced by 50%. pIC50 for a compound could be estimated adequately by fitting kact to the logarithm of the concentration with a logistic function using PRISM® software (Graphpad Inc.). The function chosen is:
kact=A/(1+10^ (log([compound])+pIC50)); A is kact [compound]=0M.
Averaging all control measurements yields that A=3.52 s^−1 and the maximum kact was forced to this value for all compounds in this study. The Hill slope that normally is estimated in concentration-effect relations appeared to be about 1 and was subsequently fixed to this value. […]

[2] = tested on: marble burying behaviour in mice; assay: Mouse Marble Burying Assay (BUR); format: in vivo; conditions: Mus musculus, sc
Method: This assay was carried out essentially according to the procedure described by Treit et al. (1981) Pharmacol Biochem Behav; 15; 619-626.
The results are presented as BUR ED50 (sc). This is the effective dose causing 50% inhibition of burying compared to control mice.

[3] = tested on: REM sleep in male Wistar rats; assay: Rat Sleep Analysis: suppression of REM sleep; format: in vivo; conditions: first 3 hours after drug administration
Method: Suppression of REM sleep in male Wistar rats was measured after treatment with compounds according to the invention or reference antidepressants using the methods described by Ruigt et al.(Electroencephalography and clinic Neurophysiology, 1989, 73, pages 52-63 & 64-71)
The values reported in Table 1 are expressed as percentage change over placebo for the amount of REM sleep in the first 3 hours after drug administration.

[4] = effective dose causing 50% inhibition of burying compared to control mice, read-out: BUR ED50 (SC)
[5] = Table 2, read-out: BUR sc ED50(mg/kg)

melting point	Compound	pIC50-Ih [1]	ED50 [2, 5]	other results
146 to 149 °C	C=CC[C@H](N)c1ccccc1-c1noc2cc(F)ccc12.O=C(O)/C=C/C(=O)O [13(1), (S)-(−)-2-(6-fluoro-1,2-benzisoxazol-3-yl)-α-2-propenyl-benzenemethanamine (E)-butenedioate]	6.13		ED50 [2, 4]: 1 mg/kg
192 to 199 °C	C=CCC(N)c1ccccc1-c1ccc(Cl)s1.O=C(O)/C=C/C(=O)O (stereo not drawn) [15 (14), 2-(5-chlorothien-2-yl)-α-2-propenyl-benzenemethanamine (E)-butenedioate]		19 mg/kg	
144 to 145 °C	C=CCC(N)c1ccccc1-c1noc2c1CCCC2.O=C(O)/C=C\C(=O)O (stereo not drawn) [15 (25), 2-(4,5,6,7-tetrahydro-1,2-benzisoxazol-3-yl)-α-2-propenyl-benzenemethanamine (Z)-butenedioate]		3.2 mg/kg	
194 to 196 °C	C=CCC(N)c1ccccc1-c1cccc(C(F)(F)F)c1.O=C(O)/C=C/C(=O)O (stereo not drawn) [15 (34), 2-(3-trifluoromethylphenyl)-α-2-propenyl-benzenemethanamine (E)-butenedioate]		6.9 mg/kg	
213 to 215 °C	C=CCC(N)c1ccccc1-c1ccc(Cl)cc1F.O=C(O)/C=C/C(=O)O (stereo not drawn) [15 (37), 2-(4-chloro-2-fluorophenyl)-α-2-propenyl-benzenemethanamine (E)-butenedioate]		9 mg/kg	
246 to 248 °C	C=CCC(N)c1ccccc1-c1cncc2ccccc12.O=C(O)/C=C/C(=O)O (stereo not drawn) [16 (2), 2-(isoquinolin-4-yl)-α-2-propenyl-benzenemethanamine (E)-butenedioate]		9.9 mg/kg	
156 to 161 °C	C=CCC(N)c1ccccc1-c1nccs1.O=C(O)/C=C/C(=O)O (stereo not drawn) [16 (4), 2-(thiazol-2-yl)-α-2-propenyl-benzenemethanamine (E)-butenedioate]		9 mg/kg	
183 to 189 °C	C=CCC(N)c1ccccc1-c1noc2cnccc12.O=C(O)/C=C/C(=O)O (stereo not drawn) [16 (6), 2-(isoxazolo[5,4-c]pyridin-3-yl)-α-2-propenyl-benzenemethanamine (E)-butenedioate]		3.8 mg/kg	
151 to 153 °C	C=CCC(N)c1ccccc1-c1noc2ccncc12.O=C(O)/C=C\C(=O)O (stereo not drawn) [16 (7), 2-(isoxazolo[4,5-c]pyridin-3-yl)-α-2-propenyl-benzenemethanamine (Z)-butenedioate]		7.6 mg/kg	
191 °C	C=CCC(N)c1ccccc1-c1noc2ccccc12.Cl (stereo not drawn) [Example 11, 2-(1,2-Benzisoxazol-3-yl)-α-2-propenyl-benzenemethanamine Hydrochloride]			ED50 [2, 4]: 1.04 mg/kg; percentage change over placebo for the amount of REM sleep ([3]; dose 0.32 mg/kg IP): −44%; percentage change over placebo for the amount of REM sleep ([3]; dose 1 mg/kg IP): −88%
191 °C	C=CC[C@@H](N)c1ccccc1-c1noc2ccccc12.Cl [Example 12, (R)-2-(1,2-Benzisoxazol-3-yl)-α-2-propenyl-benzenemethanamine Hydrochloride]	5.12		
174 to 176 °C	C=CC[C@H](N)c1cc(F)ccc1-c1noc2ccccc12.O=C(O)/C=C/C(=O)O [Example 13(3), (S)-(−)-2-(1,2-benzisoxazol-3-yl)-5-fluoro-α-2-propenyl-benzenemethanamine (E)-butenedioate]	5.98		
191 °C	C=CC[C@H](N)c1ccccc1-c1noc2ccccc12.Cl [Example 13, (S)-2-(1,2-Benzisoxazol-3-yl)-α-2-propenyl-benzenemethanamine Hydrochloride]	6.48		ED50 [2, 4]: 0.39 mg/kg; percentage change over placebo for the amount of REM sleep ([3]; dose 0.1 mg/kg IP): −17%; percentage change over placebo for the amount of REM sleep ([3]; dose 0.32 mg/kg IP): −26%; percentage change over placebo for the amount of REM sleep ([3]; dose 1 mg/kg IP): −100%
169 to 178 °C	C=CC[C@H](N)c1ccccc1-c1noc2cc(Cl)ccc12.Cl [Example 19(2), (S)-(−)-2-(6-chloro-1,2-benzisoxazol-3-yl)-α-2-propenyl-benzenemethanamine hydrochloride]	6.79		

Second part, the compound before the results:

Compound	melting point	pIC50-Ih [1]	ED50 [2, 5]	other results
C=CCC(N)c1ccccc1-c1noc2cc(Cl)ccc12.Cl (stereo not drawn) [11(2), 2-(6-chloro-1,2-benzisoxazol-3-yl)-α-2-propenyl-benzenemethanamine hydrochloride]	174 to 185 °C	6.44		ED50 [2, 4]: 0.7 mg/kg
Cl.NC(Cc1ccccc1)c1ccccc1-c1noc2ccccc12 (stereo not drawn) [36(1), 2-(1,2-benzisoxazol-3-yl)-α-benzyl-benzenemethanamine hydrochloride]	210 to 246 °C (dec.)			ED50 [2, 4]: 2.5 mg/kg
Cl.NC(Cc1ccsc1)c1ccccc1-c1noc2ccccc12 (stereo not drawn) [36(2), 2-(1,2-benzisoxazol-3-yl)-α-[(thien-3-yl)-methyl)-benzenemethanamine hydrochloride]	264 to 267 °C			ED50 [2, 4]: 1.2 mg/kg
CN(C)CCC=C1c2ccccc2CCc2ccccc21 [Am, Amitriptyline]				percentage change over placebo for the amount of REM sleep ([3]; dose 4.6 mg/kg IP): −22%; percentage change over placebo for the amount of REM sleep ([3]; dose 10 mg/kg IP): −100%
CCCCC(N)c1ccccc1-c1noc2ccccc12.Cl (stereo not drawn) [Example 15, 2-(1,2-Benzisoxazol-3-yl)-α-butyl-benzenemethanamine Hydrochloride]		5.98		
O=C(O)C(=O)O.c1ccc(CNCc2ccccc2-c2noc3ccccc23)cc1 [Example 21(3), 2-(1,2-benzisoxazol-3-yl)-N-benzyl-benzenemethanamine ethanedioate]	165 °C	5.06		
CC(O)c1ccccc1-c1noc2ccccc12 (stereo not drawn) [Example 27, 2-(1,2-Benzisoxazol-3-yl)-α-methyl-benzenemethanol]		5.50		
CC(N)c1ccccc1-c1noc2ccccc12.Cl (stereo not drawn) [Example 39, 2-(1,2-Benzisoxazol-3-yl)-α-methyl-benzenemethanamine Hydrochloride]	229 to 236 °C	5.24		
COCCCC/C(=N\OCCN)c1ccc(C(F)(F)F)cc1 [Fl, Fluvoxamine]				percentage change over placebo for the amount of REM sleep ([3]; dose 4.6 mg/kg IP): 40%; percentage change over placebo for the amount of REM sleep ([3]; dose 22 mg/kg IP): −100%
O=C(NCCN1CCOCC1)c1ccc(Cl)cc1 [Mo, Moclobemide]				percentage change over placebo for the amount of REM sleep ([3]; dose 10 mg/kg IP): −61%; percentage change over placebo for the amount of REM sleep ([3]; dose 32 mg/kg IP): −100%
COc1ccc(C(CN(C)C)C2(O)CCCCC2)cc1 (stereo not shown) [Ve, Venlafaxine]				percentage change over placebo for the amount of REM sleep ([3]; dose 3.2 mg/kg IP): −77%

Reference: patent US20020037885A1, “Therapeutic compounds” (priority 1999, published 2002)
